Blank lines part the entries; values can stand above or below the molecule they belong to.
Assays:
[1] = target: T1, BceAB-S complex (Bacillus subtilis, UniProt O34697); set-up: gene bceA; settings: MgCl2, 37 °C, 30 min, detergent solubilized
[2] = target: T2, BceAB (isolated transporter) (Bacillus subtilis, UniProt O34697); settings: MgCl2, 37 °C, 30 min, detergent solubilized
T2 construct: gene bceA

[3] = target: T1, BceAB-S complex; assay: cryo-EM structure of the complex; type: binding; set-up: gene bceA; full-length; petDUET-1, E. coli C41(DE3); LMNG-solubilized; BceA:B:S 2:1:2; with Bacitracin export permease protein BceB; Sensor protein BceS; settings: 5 mM ATPγS, 5 mM MgCl2, LMNG; bound at Walker A motif and Tyr13 of BceA
[4] = target: the molecule itself; assay: cryo-EM structure; nucleotide-free BceAB-S, co-expressed and co-purified complex in LMNG at ~7 mg/mL; Titan Krios, K3
[5] = target: T3, BceAB ABC transporter (BceA2:BceB1) (B. subtilis, UniProt O34697 2-253; O34741 1-646); assay: as above; settings: both partners purified
T3 construct: BceA of Bacillus subtilis, as m1; BceB of Bacillus subtilis, as m2; The construct for isolated BceAB (without BceS) is not described here; also called BceAB transporter; isolated BceAB; source: E. coli C41(DE3), co-expressed (with or without BceS), purified (LMNG, Co3+-Talon, Superdex 200); not shown: His6, N-terminal, kept; copies: 2 + 1
T3 sequence 1: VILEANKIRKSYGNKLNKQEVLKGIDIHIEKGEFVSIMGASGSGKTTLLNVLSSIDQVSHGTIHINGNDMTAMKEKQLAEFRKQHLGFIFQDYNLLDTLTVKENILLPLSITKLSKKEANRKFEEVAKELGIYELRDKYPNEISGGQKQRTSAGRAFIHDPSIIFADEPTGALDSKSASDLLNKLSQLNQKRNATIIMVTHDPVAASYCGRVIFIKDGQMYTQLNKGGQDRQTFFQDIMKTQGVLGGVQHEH
T3 sequence 2: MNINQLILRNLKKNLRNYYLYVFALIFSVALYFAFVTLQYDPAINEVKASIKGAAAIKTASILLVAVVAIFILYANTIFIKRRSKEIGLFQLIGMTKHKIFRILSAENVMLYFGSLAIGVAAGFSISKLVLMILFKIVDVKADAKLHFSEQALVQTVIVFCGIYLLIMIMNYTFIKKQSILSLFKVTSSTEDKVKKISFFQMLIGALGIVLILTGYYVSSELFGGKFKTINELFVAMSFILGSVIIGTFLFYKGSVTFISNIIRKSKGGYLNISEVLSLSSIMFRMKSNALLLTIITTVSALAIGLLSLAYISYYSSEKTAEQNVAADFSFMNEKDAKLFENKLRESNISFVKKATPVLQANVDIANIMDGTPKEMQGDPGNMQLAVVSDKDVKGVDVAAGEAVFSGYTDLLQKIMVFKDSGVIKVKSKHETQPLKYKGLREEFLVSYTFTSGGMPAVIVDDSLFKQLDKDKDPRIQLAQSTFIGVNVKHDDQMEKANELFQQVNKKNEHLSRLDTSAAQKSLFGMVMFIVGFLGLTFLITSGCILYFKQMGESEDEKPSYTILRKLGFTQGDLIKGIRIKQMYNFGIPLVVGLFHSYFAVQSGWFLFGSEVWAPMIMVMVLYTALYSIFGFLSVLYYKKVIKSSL

[6] = target: the molecule itself; assay: cryo-EM structure; BceAB-S, co-expressed and co-purified complex in LMNG, incubated on ice with 5 mM ATPγS and 5 mM MgCl2 for 30 min before freezing

T1 sequence (O34697 whole entry, one chain of several): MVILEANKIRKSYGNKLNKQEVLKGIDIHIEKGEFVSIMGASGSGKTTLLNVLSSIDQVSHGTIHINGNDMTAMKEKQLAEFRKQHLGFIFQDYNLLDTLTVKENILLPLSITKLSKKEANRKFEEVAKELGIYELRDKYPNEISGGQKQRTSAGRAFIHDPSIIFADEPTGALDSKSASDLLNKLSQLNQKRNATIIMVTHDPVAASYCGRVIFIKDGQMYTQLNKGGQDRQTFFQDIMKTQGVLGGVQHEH
T2 sequence (O34697 whole entry, one chain of several): as above

Molecule: Nc1ncnc2c1ncn2[C@@H]1O[C@H](COP(=O)(O)OP(=O)(O)OP(=O)(O)O)[C@@H](O)[C@H]1O [ATP]
- colorimetric phosphate-release ATPase assay [1]: The BceAB-S complex displayed significantly reduced maximal ATPase activity
- colorimetric phosphate-release ATPase assay [2]: significantly reduced maximal ATPase activity compared to the isolated BceAB transporter

Molecule: Nc1ncnc2c1ncn2[C@@H]1O[C@H](COP(=O)(O)OP(=O)(O)OP(O)(O)=S)[C@@H](O)[C@H]1O [ATPγS]
- cryo-EM structure of the complex [3]: ATPγS engages the Walker-A motif and Tyr13 in the A-loop of BceA

- stoichiometry N [5]: 2 BceS per BceAB (BceA2:BceB1)
B1: BceS sensor histidine kinase (natural protein, B. subtilis, UniProt O35044 1-334, looked up)
chain: MIKAFLIERRSWIAAFLFQQALMLFIAFVDPSISFGNVLYMVYLCILFFIIFLWFRYRKETAFYKSLKTWENNLDVTAINEPETPFEAMVERSIAGQTEHLKQTAARHRLALENEKDELMAWIHEVKTPLTAMHLIIDRMEEKALKSQLSYEWLRIHLLLDQQLHQKRISFIENDLSVEFIQLQPLIFKEIKDLQSWCIQKGIGFDIQLEAKEVLSDAKWLAFIIRQLLTNAVKYSEASEIEIKSFQKGEQTQLQVKDCGRGIDPKDVPRIFDKGFTSTTDHHDQASTGMGLYLAKKAAAPLLIHIDVESEFGAGTVFTLTFPIRNQFEHVISV
notes: BceS of Bacillus subtilis; gene PCR amplified from B. subtilis genomic DNA; Dimer in the BceAB-S complex; also called BceS kinase; BceS dimer
- stoichiometry N [4]: 2

B2: BceA, ATPase (nucleotide binding domain) subunit of the ABC transporter BceAB (natural protein, B. subtilis)
chain: VILEANKIRKSYGNKLNKQEVLKGIDIHIEKGEFVSIMGASGSGKTTLLNVLSSIDQVSHGTIHINGNDMTAMKEKQLAEFRKQHLGFIFQDYNLLDTLTVKENILLPLSITKLSKKEANRKFEEVAKELGIYELRDKYPNEISGGQKQRTSAGRAFIHDPSIIFADEPTGALDSKSASDLLNKLSQLNQKRNATIIMVTHDPVAASYCGRVIFIKDGQMYTQLNKGGQDRQTFFQDIMKTQGVLGGVQHEH
notes: BceA of Bacillus subtilis; gene PCR amplified from B. subtilis genomic DNA together with the overlapping bceB gene; Two copies of BceA stand in the BceAB-S complex (BceA:B:S 2:1:2); No cleavage of the His tag is told; also called BceA NBDs; BceA subunits; not shown: His6, N-terminal, kept
- binding result [6]: binds

— publication PMC10314905, “Architecture of a complete Bce-type antimicrobial peptide resistance module” (Nature Communications, 2023)
